Test results reported in ChEMBL document CHEMBL1128635, “Structure-activity studies of the natural product substance P antagonist win 64821” (Bioorg Med Chem Lett, 1995).

Biological target: Substance-P receptor (Homo sapiens, UniProt P25103)
Test: Antagonistic activity against Tachykinin receptor 1
Assay type: functional

Sequence of Substance-P receptor (P25103 whole entry): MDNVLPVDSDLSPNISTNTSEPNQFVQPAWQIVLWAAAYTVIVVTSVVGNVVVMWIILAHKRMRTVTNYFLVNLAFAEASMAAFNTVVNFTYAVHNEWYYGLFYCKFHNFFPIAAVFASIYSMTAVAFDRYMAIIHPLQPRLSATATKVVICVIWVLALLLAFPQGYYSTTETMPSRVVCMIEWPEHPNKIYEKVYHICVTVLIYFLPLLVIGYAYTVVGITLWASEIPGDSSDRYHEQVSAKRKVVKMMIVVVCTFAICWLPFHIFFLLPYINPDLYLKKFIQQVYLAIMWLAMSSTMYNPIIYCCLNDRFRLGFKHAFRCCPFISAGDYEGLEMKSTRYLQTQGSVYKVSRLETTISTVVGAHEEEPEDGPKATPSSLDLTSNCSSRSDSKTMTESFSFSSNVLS

Structure (SMILES)	IC50 [µM]
O=C1N[C@@H](Cc2ccccc2)C(=O)N2[C@H]3Nc4ccccc4[C@@]3(O)C[C@@H]12	> 100
O=C1N[C@@H](Cc2ccccc2)C(=O)N2[C@H]3Nc4ccccc4C3(C34C[C@H]5C(=O)N[C@@H](Cc6ccccc6)C(=O)N5[C@H]3Nc3ccccc34)C[C@@H]12 (stereo partly drawn)	0.24
O=C1N[C@@H](Cc2ccccc2)C(=O)N2[C@H]1C[C@@]1(Cc3cc([N+](=O)[O-])ccc3O)c3ccccc3N[C@@H]21	98
COc1ccc([N+](=O)[O-])cc1C[C@@]12C[C@H]3C(=O)N[C@@H](Cc4ccccc4)C(=O)N3[C@@H]1Nc1ccccc12	88
COc1ccc([N+](=O)[O-])cc1C[C@]12C[C@H]3C(=O)N[C@@H](Cc4ccccc4)C(=O)N3[C@H]1Nc1ccccc12	54
O=C1N[C@@H](Cc2ccccc2)C(=O)N2[C@H]1C[C@@]1(O)c3ccccc3N[C@@H]21	> 100
O=C1[C@@H]2C[C@@]3(Cc4cc([N+](=O)[O-])ccc4O)c4ccccc4N[C@H]3N2C(=O)[C@H](Cc2ccccc2)N1Cc1cc([N+](=O)[O-])ccc1O	> 100
O=C1[C@@H]2C[C@]3(Cc4cc([N+](=O)[O-])ccc4O)c4ccccc4N[C@@H]3N2C(=O)[C@H](Cc2ccccc2)N1Cc1cc([N+](=O)[O-])ccc1O	> 100

The remaining compounds from weak to strong by IC50, led by results:

IC50 [µM]	Structure (SMILES)
48	O=C1N[C@@H](Cc2ccccc2)C(=O)N2[C@H]3Nc4ccccc4[C@@]3(Cc3cc([N+](=O)[O-])ccc3O)C[C@@H]12
38	COc1ccc(N)cc1C[C@@]12C[C@H]3C(=O)N[C@@H](Cc4ccccc4)C(=O)N3[C@@H]1Nc1ccccc12
26	COc1ccc(N)cc1C[C@]12C[C@H]3C(=O)N[C@@H](Cc4ccccc4)C(=O)N3[C@H]1Nc1ccccc12
5.7	Cc1cccc2c1C1(C34C[C@H]5C(=O)N[C@@H](Cc6ccccc6)C(=O)N5[C@H]3Nc3cccc(C)c34)C[C@H]3C(=O)N[C@@H](Cc4ccccc4)C(=O)N3[C@H]1N2 (stereo partly drawn)
0.44	Cc1cccc2c1C1(C34C[C@H]5C(=O)N[C@@H](Cc6ccccc6)C(=O)N5[C@H]3Nc3ccccc34)C[C@H]3C(=O)N[C@@H](Cc4ccccc4)C(=O)N3[C@H]1N2 (stereo partly drawn)
